Measured values as given in ChEMBL document CHEMBL1143545, “A proof of the specificity of kanamycin-ribosomal RNA interaction with designed synthetic analogs and the antibacterial activity” (2005).
Values after ≈ are worked out from the molar mass of the structure shown.

Key:
Type in all cases: functional
Escherichia coli [1] = experiment: Minimal inhibitory concentration against Escherichia coli JR66/W677 was determined by 2-fold agar dilution streak method at 37: C for 18 h
Escherichia coli [2] = experiment: Minimal inhibitory concentration against Escherichia coli K-12 was determined by 2-fold agar dilution streak method at 37: C for 18 h; details: K-12, 18 h
Bacillus cereus = experiment: Minimal inhibitory concentration against Bacillus cereus ATCC 10702 was determined by 2-fold agar dilution streak method at 37: C for 18 h; details: ATCC 10702, 18 h
Klebsiella pneumoniae = experiment: Minimal inhibitory concentration against Klebsiella pneumoniae PCI 602 was determined by 2-fold agar dilution streak method at 37: C for 18 h
Escherichia coli [3] = experiment: Minimal inhibitory concentration against Escherichia coli K-12 ML1410 was determined by 2-fold agar dilution streak method at 37: C for 18 h
Staphylococcus aureus = experiment: Minimal inhibitory concentration against Staphylococcus aureus FDA209P was determined by 2-fold agar dilution streak method at 37: C for 18 h
Serratia marcescens = experiment: Minimal inhibitory concentration against Serratia marcescens was determined by 2-fold agar dilution streak method at 37: C for 18 h
Pseudomonas aeruginosa [4] = experiment: Minimal inhibitory concentration against Pseudomonas aeruginosa GN315 was determined by 2-fold agar dilution streak method at 37: C for 18 h
Bacillus subtilis = experiment: Minimal inhibitory concentration against Bacillus subtilis PCI219 was determined by 2-fold agar dilution streak method at 37: C for 18 h
[5] = tested on: Mycolicibacterium smegmatis; experiment: Minimal inhibitory concentration against Mycobacterium smegmatis ATCC607 was determined by 2-fold agar dilution streak method at 37C for 42h
Pseudomonas aeruginosa [6] = experiment: Minimal inhibitory concentration against Pseudomonas aeruginosa 21-75 was determined by 2-fold agar dilution streak method at 37: C for 18 h
Micrococcus luteus = experiment: Minimal inhibitory concentration against Micrococcus luteus FDA16 was determined by 2-fold agar dilution streak method at 37: C for 18 h
Pseudomonas aeruginosa [7] = experiment: Minimal inhibitory concentration against Pseudomonas aeruginosa A3 was determined by 2-fold agar dilution streak method at 37: C for 18 h

| MIC (Escherichia coli [1]) [µg/mL] | MIC (Escherichia coli [2]) [µg/mL] | MIC (Bacillus cereus) [µg/mL] | MIC (Klebsiella pneumoniae) [µg/mL] | MIC (Escherichia coli [3]) [µg/mL] | MIC (Staphylococcus aureus) [µg/mL] | MIC (Serratia marcescens) [µg/mL] | MIC (Pseudomonas aeruginosa [4]) [µg/mL] | MIC (Bacillus subtilis) [µg/mL] | MIC [5] [µg/mL] | MIC (Pseudomonas aeruginosa [6]) [µg/mL] | MIC (Micrococcus luteus) [µg/mL] | MIC (Pseudomonas aeruginosa [7]) [µg/mL] | Structure (SMILES) |
| --- | --- | --- | --- | --- | --- | --- | --- | --- | --- | --- | --- | --- | --- |
| > 100 | 50 (≈ 101 µM) | 25 (≈ 50.7 µM) | > 100 | > 100 | 0.78 (≈ 1.58 µM) | > 100 | > 100 | 0.78 (≈ 1.58 µM) | 3.13 (≈ 6.34 µM) | > 100 | > 100 | 25 (≈ 50.7 µM) | NCC1CCC(N)C(OC2C(N)CC(N=C(N)N)C(OC3OC(CO)C(O)C(N)C3O)C2O)O1 (stereo not given) |
| 3.13 (≈ 5.26 µM) | 0.78 (≈ 1.31 µM) | 0.78 (≈ 1.31 µM) | 1.56 (≈ 2.62 µM) | 1.56 (≈ 2.62 µM) | 0.2 (≈ 0.336 µM) | 25 (≈ 42 µM) | > 100 | 0.1 (≈ 0.168 µM) | 0.39 (≈ 0.656 µM) | 12.5 (≈ 21 µM) | 12.5 (≈ 21 µM) | 0.39 (≈ 0.656 µM) | NCC1CCC(N)C(OC2C(N)CC(NC(=O)[C@H](O)CCN=C(N)N)C(OC3OC(CO)C(O)C(N)C3O)C2O)O1 (stereo not given in full) |
| 25 (≈ 46.6 µM) | 12.5 (≈ 23.3 µM) | 6.25 (≈ 11.6 µM) | 12.5 (≈ 23.3 µM) | 25 (≈ 46.6 µM) | 1.56 (≈ 2.91 µM) | > 100 | > 100 | 0.78 (≈ 1.45 µM) | 6.25 (≈ 11.6 µM) | > 100 | 100 (≈ 186 µM) | 3.13 (≈ 5.83 µM) | NCCCC(=O)NC1CC(N)C(OC2OC(CN)CCC2N)C(O)C1OC1OC(CO)C(O)C(N)C1O (stereo not given) |
| > 100 | 100 (≈ 165 µM) | 25 (≈ 41.1 µM) | 100 (≈ 165 µM) | > 100 | 6.25 (≈ 10.3 µM) | > 100 | > 100 | 3.13 (≈ 5.15 µM) | 25 (≈ 41.1 µM) | > 100 | > 100 | 100 (≈ 165 µM) | NCC1CCC(N)C(OC2C(N)CC(NC(=O)[C@H](N)CCCN=C(N)N)C(OC3OC(CO)C(O)C(N)C3O)C2O)O1 (stereo not given in full) |
| 50 (≈ 86.4 µM) | 12.5 (≈ 21.6 µM) | 6.25 (≈ 10.8 µM) | 12.5 (≈ 21.6 µM) | 25 (≈ 43.2 µM) | 1.56 (≈ 2.7 µM) | > 100 | > 100 | 1.56 (≈ 2.7 µM) | 6.25 (≈ 10.8 µM) | > 100 | 100 (≈ 173 µM) | 6.25 (≈ 10.8 µM) | NCC1CCC(N)C(OC2C(N)CC(NC(=O)CCCN=C(N)N)C(OC3OC(CO)C(O)C(N)C3O)C2O)O1 (stereo not given) |
